We go through three molecules from the NIST ThermoML archive (doi:10.1021/acs.jced.6b00829).

Numbers after ± are expanded uncertainties.

Data set [1] is described as follows: refractive index (Na D-line) (dimensionless). The note with it: 298.15 K; 101.33 kPa; Liquid; Standard Abbe refractometry.
For data set [2] the following is noted: 298.15 K; 101.33 kPa; Liquid; Vibrating tube method.

Regarding `CCCCn1cc[n+](C)c1.F[P-](F)(F)(F)(F)F` [1-butyl-3-methylimidazolium hexafluorophosphate], the refractive index (as a rule, a measure of how strongly the sample bends light) in data set [1] came out at 1.4095 ± 0.0008. Moreover, the mass density (in general, mass per unit of volume) in data set [2] came out at 1367.4 ± 2.1 kg/m3. The like results for `CCO` [ethanol] were, in that order, 1.3594 ± 0.0008 and 786.47 ± 2 kg/m3.

On to `O` [water], for which, in data set [1], the refractive index is reported as 1.3325 ± 0.0008.
